Reference: the supplement of paper PMC10307832

Experiments:
Masitinib + Dasatinib = compound: Cc1ccc(NC(=O)c2ccc(CN3CCN(C)CC3)cc2)cc1Nc1nc(-c2cccnc2)cs1 [Masitinib] + Cc1nc(Nc2ncc(C(=O)Nc3c(C)cccc3Cl)s2)cc(N2CCN(CCO)CC2)n1 [Dasatinib] (partner 0.075 µM); experiment: relative viability (nuclei count vs DMSO), 5 days (fraction); higher = more cells survive
How it was run: (§1)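 Five library-drug doses in √10 steps were combined with a fixed anchor-drug dose, or a single drug was given alone, by pin tool to lung cancer cell lines in 1536-well plates the day after seeding. Nuclei were stained and counted after 5 days. Relative viability is the nuclei count in treated wells over that in vehicle wells, taken as the median of duplicate plates.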

[1] = compound: CC1=CC(=CC=C1)NC2=NC(=CS2)C3=CC=NC=C3 + CC(=O)Nc1cccc(-n2c(=O)n(C3CC3)c(=O)c3c(Nc4ccc(I)cc4F)n(C)c(=O)c(C)c32)c1 [Trametinib] (partner 0.02 µM); experiment: as above
How it was run: as §1

| Cell Line | relative viability (Masitinib + Dasatinib; first compound 0.01 µM) | relative viability (Masitinib + Dasatinib; first compound 0.03162 µM) | relative viability (Masitinib + Dasatinib; first compound 0.1 µM) | relative viability (Masitinib + Dasatinib; first compound 0.3162 µM) | relative viability (Masitinib + Dasatinib; first compound 1 µM) | relative viability ([1]; first compound 0.08 µM) | relative viability ([1]; first compound 0.253 µM) | relative viability ([1]; first compound 0.8 µM) | relative viability ([1]; first compound 2.53 µM) | relative viability ([1]; first compound 8 µM) |
| --- | --- | --- | --- | --- | --- | --- | --- | --- | --- | --- |
| SW 1573 | 0.452 | 0.463 | 0.526 | 0.52 | 0.476 | 0.596 | 0.585 | 0.741 | 0.696 | 0.48 |
| ChaGo-K-1 | 0.577 | 0.575 | 0.54 | 0.546 | 0.629 | 0.903 | 0.882 | 0.858 | 0.929 | 0.839 |
| COR-L 105 | 0.37 | 0.338 | 0.305 | 0.288 | 0.286 | 0.442 | 0.465 | 0.454 | 0.424 | 0.38 |
| NCI-H1993 | 0.554 | 0.508 | 0.577 | 0.532 | 0.52 | 0.514 | 0.517 | 0.596 | 0.348 | 0.461 |
| NCI-H2009 | 0.291 | 0.284 | 0.324 | 0.283 | 0.244 | 0.249 | 0.271 | 0.265 | 0.267 | 0.278 |
| SK-LU-1 | 0.157 | 0.202 | 0.174 | 0.195 | 0.18 | 0.479 | 0.492 | 0.361 | 0.568 | 0.351 |
| NCI-H2347 | 0.325 | 0.293 | 0.274 | 0.279 | 0.262 | 0.289 | 0.309 | 0.256 | 0.29 | 0.265 |
| HCC-366 | – | 0.654 | – | 0.619 | 0.609 | 0.357 | 0.273 | 0.183 | 0.214 | 0.168 |
| EMC-BAC-2 | 0.35 | 0.33 | 0.397 | 0.314 | 0.296 | 0.798 | – | 1.01 | 0.879 | 0.823 |
| NCI-H3122 | 0.512 | 0.724 | 0.61 | 0.615 | 0.916 | 0.204 | 0.25 | 0.307 | 0.321 | 0.414 |
| SK-MES-1 | 0.319 | 0.359 | 0.392 | 0.286 | 0.335 | 0.477 | 0.5 | 0.457 | 0.571 | 0.423 |
| NCI-H2170 | 0.5 | 0.473 | 0.547 | 0.56 | 0.519 | 0.945 | 0.935 | 0.833 | 0.86 | 0.668 |
| NCI-H2342 | 0.326 | 0.334 | 0.3 | 0.301 | 0.34 | 0.686 | 0.729 | 0.695 | 0.74 | 0.732 |
| EPLC-272H | 0.509 | 0.416 | 0.337 | 0.373 | 0.242 | 0.308 | 0.271 | 0.296 | – | 0.277 |
| NCI-H1975 | 0.427 | 0.403 | 0.427 | – | 0.279 | 0.294 | 0.274 | 0.335 | 0.263 | 0.193 |
| NCI-H647 | 0.181 | 0.208 | 0.186 | 0.171 | 0.155 | 0.408 | 0.379 | 0.387 | 0.424 | 0.279 |
| NCI-H441 | 0.846 | 0.623 | 0.723 | 0.659 | 0.511 | 0.363 | 0.418 | 0.623 | 0.348 | 0.349 |
| NCI-H1355 | 0.69 | 0.485 | 0.701 | 0.436 | 0.69 | 0.388 | 0.298 | 0.275 | 0.294 | 0.269 |
| NCI-H23 | 0.713 | 0.69 | 0.786 | 0.859 | 0.805 | 0.371 | 0.199 | 0.424 | 0.388 | 0.419 |
| NCI-H522 | 0.818 | – | 0.823 | 0.887 | 0.879 | 0.79 | 0.66 | 0.832 | 0.789 | 0.878 |
| NCI-H650 | 0.516 | 0.429 | 0.482 | 0.313 | 0.415 | 0.837 | 1.07 | 1.04 | 0.956 | 0.964 |

| Cell Line | relative viability (Masitinib + Dasatinib; first compound 0.01 µM) | relative viability (Masitinib + Dasatinib; first compound 0.03162 µM) | relative viability (Masitinib + Dasatinib; first compound 0.1 µM) | relative viability (Masitinib + Dasatinib; first compound 0.3162 µM) | relative viability (Masitinib + Dasatinib; first compound 1 µM) | relative viability ([1]; first compound 0.08 µM) | relative viability ([1]; first compound 0.253 µM) | relative viability ([1]; first compound 0.8 µM) | relative viability ([1]; first compound 2.53 µM) | relative viability ([1]; first compound 8 µM) |
| --- | --- | --- | --- | --- | --- | --- | --- | --- | --- | --- |
| NCI-H1793 | 0.415 | 0.398 | 0.396 | 0.356 | 0.462 | 0.451 | 0.353 | 0.348 | 0.345 | 0.394 |
| NCI-H358 | 0.155 | 0.158 | 0.166 | 0.161 | 0.133 | 0.121 | 0.141 | 0.133 | 0.142 | 0.136 |
| NCI-H2087 | 0.922 | 0.927 | 1.01 | 0.775 | 0.788 | 0.178 | 0.195 | 0.246 | 0.164 | 0.181 |
| NCI-H838 | 0.304 | 0.258 | 0.344 | 0.266 | 0.229 | 0.446 | 0.458 | 0.443 | 0.372 | 0.407 |
| NCI-H460 | 0.392 | 0.447 | 0.561 | 0.344 | 0.485 | 0.0961 | 0.0855 | 0.0743 | 0.0913 | 0.111 |
| LOU-NH91 | 0.557 | 0.511 | 0.54 | 0.442 | 0.546 | 0.704 | 0.734 | 0.721 | 0.754 | 0.728 |
| NCI-H322M | 0.259 | 0.286 | 0.236 | 0.236 | 0.253 | 0.482 | 0.534 | 0.509 | 0.552 | 0.52 |
| NCI-H520 | 0.245 | 0.225 | 0.247 | 0.292 | 0.215 | 0.592 | 0.671 | 0.757 | 0.707 | 0.716 |
| NCI-H661 | 0.883 | 1.03 | 1.04 | 0.795 | 0.658 | 0.478 | 0.583 | 0.579 | 0.54 | 0.48 |
| NCI-H727 | 0.332 | 0.315 | 0.346 | 0.383 | 0.35 | 0.422 | – | 0.439 | – | 0.405 |
| NCI-H1944 | – | 0.204 | – | 0.215 | 0.213 | 0.345 | 0.409 | 0.39 | 0.362 | 0.357 |
| NCI-H1755 | – | 0.455 | 0.451 | 0.422 | 0.383 | 0.734 | 0.735 | 0.612 | 0.642 | 0.522 |
| H3255 | 0.335 | 0.363 | 0.336 | 0.349 | 0.339 | 0.597 | 0.602 | 0.569 | 0.585 | 0.403 |
| 201T | 0.53 | 0.594 | 0.521 | 0.42 | 0.491 | 0.75 | 0.76 | 0.76 | 0.778 | 0.659 |
| NCI-H2228 | 0.544 | 0.461 | 0.729 | 0.523 | 0.425 | 0.418 | 0.48 | 0.501 | 0.44 | 0.385 |
| HOP-62 | 0.604 | 0.632 | 0.785 | 0.634 | 0.606 | 0.371 | 0.324 | 0.345 | 0.328 | 0.266 |
| CAL-12T | 0.452 | 0.381 | 0.34 | 0.306 | 0.374 | 0.282 | 0.325 | 0.342 | 0.236 | 0.305 |
| NCI-H596 | 0.594 | 0.566 | 0.675 | 0.667 | 0.615 | 0.731 | 0.761 | 0.575 | 0.642 | 0.586 |
| NCI-H1792 | 0.757 | 0.342 | 0.83 | 0.718 | 1.32 | 0.401 | 0.397 | 0.379 | 0.317 | 0.429 |
| NCI-H2085 | 0.215 | 0.249 | 0.242 | 0.278 | 0.215 | 0.513 | 0.376 | 0.428 | 0.471 | 0.426 |
| NCI-H2023 | 0.551 | 0.602 | 0.543 | 0.395 | 0.513 | 0.592 | 0.617 | 0.429 | 0.375 | 0.179 |
